From patent publication US10683276B2, “Heterocycle-substituted bicyclic azole pesticides” (FMC Corporation, priority 2015, dated 2020) come the findings set out here.

Type in all cases: in vivo
The subject of series [1] is diamondback moth (Plutella xylostella (L.)). The series is described as follows: Test A: control of diamondback moth, foliar spray on mustard plant. The settings on record: sprayed at 250 ppm; neonate larvae on mustard plant; assessed after 6 days. Here is the method:
(§1) Test compounds were formulated using a solution containing 10% acetone, 90% water and 300 ppm X-77® Spreader Lo-Foam Formula non-ionic surfactant containing alkylarylpolyoxyethylene, free fatty acids, glycols and isopropanol (Loveland Industries, Inc. Greeley, Colo., USA). The formulated compounds were applied in 1 mL of liquid through a SUJ2 atomizer nozzle with ⅛ JJ custom body (Spraying Systems Co. Wheaton, Ill., USA) positioned 1.27 cm (0.5 inches) above the top of each test unit. Test compounds were sprayed at the rates indicated, and each test was replicated three times.
For evaluating control of diamondback moth (Plutella xylostella (L.)) the test unit consisted of a small open container with a 12-14-day-old mustard plant inside. This was pre-infested with ˜50 neonate larvae that were dispensed into the test unit via corn cob grits using an inoculator. The larvae moved onto the test plant after being dispensed into the test unit.
Test compounds were formulated and sprayed at 250 and/or 50 ppm. After spraying of the formulated test compound, each test unit was allowed to dry for 1 hour and then a black, screened cap was placed on top. The test units were held for 6 days in a growth chamber at 25° C. and 70% relative humidity. Plant feeding damage was then visually assessed based on foliage consumed, and larvae were assessed for mortality.

Series [2] relates to cotton melon aphid (Aphis gossypii (Glover)). The experiment in a line: Test D: control of cotton melon aphid, spray on cotton plant. The following applies: 144 h, sprayed at 50 ppm, assessed after 6 days. Here is the method: as §1
For evaluating control of cotton melon aphid (Aphis gossypii (Glover)) through contact and/or systemic means, the test unit consisted of a small open container with a 6-7-day-old cotton plant inside. This was pre-infested with 30-40 insects on a piece of leaf according to the cut-leaf method, and the soil of the test unit was covered with a layer of sand.
Test compounds were formulated and sprayed at 250 and/or 50 ppm. After spraying, the test units were maintained in a growth chamber for 6 days at 19° C. and 70% relative humidity. Each test unit was then visually assessed for insect mortality.

Series [3] concerns green peach aphid (Myzus persicae (Sulzer)). The experiment in a line: Test C: control of green peach aphid, spray on radish plant. The following applies: 144 h, sprayed at 50 ppm, assessed after 6 days. How it is done:
as §1
For evaluating control of green peach aphid (Myzus persicae (Sulzer)) through contact and/or systemic means, the test unit consisted of a small open container with a 12-15-day-old radish plant inside. This was pre-infested by placing on a leaf of the test plant 30-40 aphids on a piece of leaf excised from a culture plant (cut-leaf method). The aphids moved onto the test plant as the leaf piece desiccated. After pre-infestation, the soil of the test unit was covered with a layer of sand.
Test compounds were formulated and sprayed at 250 and/or 50 ppm. After spraying of the formulated test compound, each test unit was allowed to dry for 1 hour and then a black, screened cap was placed on top. […] Each test unit was then visually assessed for insect mortality.

Series [4] has as its system sweetpotato whitefly (Bemisia tabaci (Gennadius)). The series is described as follows: Test E: control of sweetpotato whitefly, spray on cotton plant. The settings on record: sprayed at 50 ppm; eggs on cotton plant; assessed after 13 days. Here is the method:
as §1
For evaluating control of the sweetpotato whitefly (Bemisia tabaci (Gennadius)) through contact and/or systemic means, the test unit consisted of a small open container with a 12-14-day-old cotton plant inside. Prior to the spray application, both cotyledons were removed from the plant, leaving one true leaf for the assay. Adult whiteflies were allowed to lay eggs on the plant and then were removed from the test unit. Cotton plants infested with at least 15 eggs were submitted to the test for spraying.
Test compounds were formulated and sprayed at 250 and/or 50 ppm. After spraying, the test units were allowed to dry for 1 hour. […] Each test unit was then visually assessed for insect mortality.

The test system of series [5] is Western Flower Thrips (Frankliniellla occidentalis (Pergande)). The series is described as follows: Test F: control of Western Flower Thrips, spray on Soleil bean plant. The settings on record: sprayed at 250 ppm; adult thrips on Soleil bean plant; held for 6 days. Here is the method: For evaluating control of the Western Flower Thrips (Frankliniellla occidentalis (Pergande)) through contact and/or systemic means, the test unit consisted of a small open container with a 5-7-day-old Soleil bean plant inside.
Test compounds were formulated and sprayed at 250 and/or 50 ppm. After spraying, the test units were allowed to dry for 1 hour, and then 22-27 adult thrips were added to each unit. A black, screened cap was placed on top, and the test units were held for 6 days at 25° C. and 45-55% relative humidity.

For `CN(C)C(=O)C(C)(C)NC(=O)C(C)(C)NC(=O)c1cccc2nn(-c3cccnc3)cc12` [Compound 2], the “control efficacy (40% or less feeding damage and/or 100% mortality)” value in series [1] is reported as “very good to excellent levels of control efficacy”.
Usually mortality stands for the share of the test organisms that died. Low readings indicate more survivors, high ones fewer survivors. Turning to `CC(C)(NC(=O)c1cccc2nn(-c3cccnc3)cc12)C(=O)NCc1ccccc1` [Compound 25, N-[1,1-dimethyl-2-oxo-2-[(phenylmethyl)amino]ethyl]-2-(3-pyridinyl)-2H-indazole-4-carboxamide], the mortality at 50 ppm in series [2] and in series [3] was at least 80% throughout.
With `CC(C)(NC(=O)c1cccc2nn(-c3cccnc3)cc12)C(=O)NCc1ccccn1` [Compound 26], in series [4], the mortality entry is recorded as “at least 50%”.
`CC(C)(NC(=O)c1cccc2nn(-c3cccnc3)cc12)C(=O)NC1CCC1` [Compound 43]: the “control efficacy (30% or less plant damage and/or 100% mortality)” value in series [5] was “very good to excellent levels of control efficacy”.
Same read-out and setting: for `CON(C)C(=O)C(C)(C)NC(=O)c1cccc2nn(-c3cccnc3)cc12` [Compound 47] the value was “very good to excellent levels of control efficacy”; for `CONC(=O)C(C)(C)NC(=O)c1cccc2nn(-c3cccnc3)cc12` [Compound 48], “very good to excellent levels of control efficacy”.
